Measurements published in US20090318465A1, “METHOD FOR IDENTIFYING COMPOUNDS THAT ACT AS INSULIN-SENSITIZERS” (priority 2006, published 2009).
“Also recorded” adds a separate entry of the source.

Columns and labels:
[1] = test system: genetically diabetic db/db BL/6J mice; experiment: Screening in db/db BL/6J mice, plasma glucose reduction; format: in vivo; details: 10 days
Method: In an embodiment, the method includes selecting 6-8 weeks old male db/db mice based on blood glucose levels determined after withholding feed for four hours. For example, the method can employ animals with plasma glucose levels in a suitable range, such as 300-500 mg/dl. The selected mice can be orally dosed with test (lead) compound, for example, in 0.5% carboxy methyl cellulose (CMC) vehicle at a suitable frequency and for a suitable time, such as twice daily for 10 consecutive days. This embodiment of the method can include obtaining blood on, for example, day 5 and day 10, after withholding feed for four hours, and determining plasma glucose levels. These levels can be determined using enzymatic methods (e.g., Diasys kit, Germany) in an autoanalyser. Lead compounds are considered to be in vivo actives if they produce statistically significant fall in plasma glucose on day 10 compared to mice treated with 0.5% CMC vehicle. Rosiglitazone can be used as a standard at 5 mg per kg (mpk) bid for comparison with test compounds.
The protocol was designed as in references. • 1.
The screening of compounds was based on their ability to reduce the plasma glucose levels in genetically diabetic db/db BL/6J mice.
Male db/db mice (obtained from the Animal House of Nicholas Piramal Research Centre, Goregaon, Mumbai, India) were used for this study (body weight in the range of 30-40 g and age is 6-8 weeks) and were kept eight per cage in individually ventilated cages at controlled temperature (22±1° C.) and humidity (45±5%). Food and water were provided ad libitum during their laboratory stay, except for four hours fasting prior to blood sample collection. 12 hours light and dark cycle was followed during the whole study period.
After 4 hours fasting blood samples were collected from mice. Mice showing plasma glucose levels between 300 to 500 mg/dl were divided in groups (8-10 per group) such that the mean plasma glucose levels and variation within the group, for each group, is nearly same. After grouping, mice in respective groups received treatment with 0.5% CMC vehicle, standard compound or test compounds for 10 days. Rosiglitazone was used as a standard.
After 4 hours fasting, mice were anaesthetized using isoflurane (inhalation anesthetic), and blood samples were collected through the retro orbital plexus. Collected blood samples were centrifuged at 7000 rpm for 10 minutes at 4° C.; Separated plasma was used for estimation of plasma glucose using diagnostic kits (Diasys, Germany). Plasma glucose levels of treated groups were normalized with control group using the following formula, which accounted for the changes in control group.

[2] = test system: dexamethasone treated insulin resistant 3T3-L1 adipocytes; experiment: Insulin resistance assay (IR assay), 14C-2-deoxyglucose uptake; format: cell-based, mouse; details: for % of Rosiglitazone (comparison with Rosiglitazone): test compound 10 μM/mL versus Rosiglitazone 0.1 μM; for Fold vehicle (fold activity over vehicle): test compound 10 μM/mL, glucose uptake with 200 nM insulin, vehicle = 1.0
From the text: A suitable insulin resistance assay includes screening of compounds which act as insulin-sensitizers using chronically dexamethasone treated 3T3-L1 adipocytes as an in vitro model. This is a known model for studying insulin signaling and insulin resistance. Chronically dexamethasone treated 3T3-L1 adipocytes serve as a valid in vitro model of insulin resistance resembling diabetes patients.
In an embodiment, the method according to the present invention includes screening compounds identified as active in the phenotype-based assay against dexamethasone treated insulin resistant adipocytes. For example, the method can include applying actives from the insulin sensitivity assay at a concentration of 1-10 μM to the insulin resistant adipocytes for 1-4 days. The adipocytes were previously prepared for the assay by long term exposure to dexamethasone, for example, at 100 nM for about 24-48 hours.
The method can also include determining whether the compounds enhance glucose uptake in the insulin resistant adipocytes by more than 50% above that enhanced by insulin. The method can then include selecting compounds as active, if they caused 1.5 fold or more increase in glucose uptake compared to insulin treated adipocytes. Glucose uptake can be measured by any of a variety of known methods, such as measuring uptake of ^14C-labeled 2-deoxyglucose, a non metabolisable analogue of D-Glucose.
The assay was designed as in the reference, British Journal of Pharmacology, 130, 351-58, 2000, which is incorporated herein by reference for disclosure of the assay.
The solution of test compound (10 μM/mL) was prepared in DMSO.
Rosiglitazone (0.1 μM in DMSO) was used as standard.
Differentiation into adipocytes was induced by known methods as described below. (J. Biol. Chem., 260, 2646-2652, 1985, which is incorporated herein by reference for disclosure of the induction).
Culture medium containing […] 1-methyl-3-isobutylxanthine (IBMX), 0.25 μM dexamethasone, 5 μg/ml insulin (bovine/human), 10 mM HEPES buffer and fetal bovine serum (FBS) 10% by volume in Dulbecco's modified Eagle's medium (DMEM) was used for differentiation.
3T3 L1 fibroblasts were seeded in 24-well or 6-well plates at a density of 0.5-2×10^4 cells/well and were allowed to reach maximal confluency.
The confluent fibroblasts were exposed to culture medium for 2 days. After this period, fresh culture medium (DMEM) containing only insulin was used, 10% FBS was added and cultured for 4 days with change of medium every 2 days. After 7 days the cultures received DMEM containing 10% FBS with no exposure to insulin. By the end of 8-10 days, more than 95% of the cells have become differentiated into adipocytes.
The mature adipocytes were exposed to dexamethasone, 100 nM added in ethanol, in culture medium and incubated for 2 days. On the third day, solution of test compound was added along with 100 nM dexamethasone containing medium for 4 days with a change in medium after every 2 days. Vehicle control contained 1% v/v of DMSO. Rosiglitazone was used as a standard and was added at a concentration of 0.1 μM in DMSO, along with 100 nM dexamethasone containing medium for 4 days with a change in medium after every 2 days. After a total period of 6 days, the cells were processed for glucose uptake as follows.
The insulin resistant adipocytes were exposed to serum-free DMEM containing 0.1% bovine serum albumin for 3-4 hours at 37° C. in CO2 atmosphere. The test compound was also present during this period. After 3-4 hours, the medium was aspirated and replaced with Kreb's Ringer phosphate (KRP) buffer at pH 7.4 and with human/porcine insulin, 200 nM. The cells were incubated for 30 minutes at 37° C. At the end of 30 minutes, 0.05 or 0.1 μCi of ^14C-2-deoxyglucose was added to each well of either 24-well or 6-well plates respectively and was incubated for exactly 5 minutes. After exactly 5 minutes, the plates were transferred to ice trays and medium was rapidly aspirated. […]

[3] = test system: diet induced obese (DIO) mice; experiment: Evaluation of antiobesity, chronic study in diet induced obese mice; format: in vivo; details: 10 days, vs vehicle
From the text: In an embodiment, the method includes selecting 17-18 week old male diet induced obese (DIO) mice, which were maintained on a high fat diet (D12451, Research Diets Inc, New Brunswick, N.J. 08901, USA, 45% kcal from fat), based on body weight. The selected mice can be dosed intraperitoneally with test (lead) compound, for example, in 0.5% CMC vehicle at a suitable frequency and for a suitable time, such as once daily for 10 consecutive days. This embodiment of the method can include recording body weight and food weight daily. Lead compounds are considered to be in vivo active if they produce statistically significant decrease in cumulative food intake for up to 1 day and a statistically significant decrease in cumulative body weight gain on day 10 as compared to mice treated with the 0.5% CMC vehicle. Sibutramine can be used as a standard at 3 mpk for comparison.
The assay was designed as in the reference, British Journal of Pharmacology, 132, 1898-1904, 2001, the disclosure of which is incorporated by reference for the teaching of the assay.
Male C57BI6/J mice (3-4 weeks of age) were housed in groups of 10 animals per cage in the animal facility. High fat diet (D12451 Research Diets Inc., New Brunswick, N.J. 08901, USA, 45% kcal from fat) and water was provided ad libitum for 14 weeks. After this period, the animals were housed individually in cages. The animals were weighed and separated into groups with similar body weight. They were acclimatised to the experimental procedures for 2 days. Animals were dosed intraperitoneally with test compound (200 mpk) or the standard (3 mpk) in 10 mL/kg of 0.5% CMC vehicle between 10:00 am-12:00 noon. After drug administration the animals were presented with a pre-weighed amount of food in the food cup. Weight of feed remaining in the cup and body weight were recorded daily just prior to dosing. The change in weight and cumulative food intake were computed.

db/db mice = experiment: Evaluation of lipid levels (dyslipidemia) in db/db mice; format: in vivo; details: Rosiglitazone 5 mpk oral bid, 15 days
Method: Body weight was measured daily. On day 15, the animals were deprived of food for 4 hours after the last dose administration. Blood was collected at the end of the 4-hour period using heparinised capillaries by a retro-orbital puncture. Plasma samples were analyzed for, triglyceride and cholesterol, using the autoanalyser.
The assay was designed as in the reference, Metabolism, 49 (1), 22-31, 2000, the disclosure of which is incorporated by reference for the teaching of the assay.
Seven groups of male db/db mice (8 animals per group) were used. […] Body weight was measured daily. On day 15, the animals were deprived of food for 4 hours after the last dose administration. Blood was collected at the end of the 4-hour period using heparinised capillaries by a retro-orbital puncture. Plasma samples were analyzed for glucose, triglyceride, cholesterol, using the autoanalyser.

Row | Structure (SMILES) | % of Rosiglitazone (comparison with Rosiglitazone) [2] | Fold vehicle (fold activity over vehicle) [2] | Normalization with control (plasma glucose reduction) ([1]; 100 mpk bid, oral, 4 h fasted) | other results
1 | CCOC(=O)CCN1Cc2cc(NCCN(C)c3nc4ccccc4o3)ccc2C1=O [Compound 4, 3-{5-[2-(Benzooxazol-2-yl-methyl-amino)-ethylamino]-1-oxo-1,3-dihydro-isoindol-2-yl}propionic acid ethyl ester] | 76.8 ± 12.4% | 1.88 ± 0.14 |  | Normalization with control (plasma glucose reduction) ([1]; 50 mpk bid): 24.99 ± 17.92
2 | COc1ccc(S(=O)(=O)Nc2cnc(Oc3cnc4ccccc4c3)c(Cl)c2)cc1 [Compound 8, N-[5-Chloro-6-(quinolin-3-yloxy)-pyridine-3-yl]-4-methoxy-benzene sulfonamide] | 66.4 ± 5.2% | 2.19 ± 0.09 | 41.90 ± 3.84 | 
3 | CC(=O)N1CCN(c2ccc(Oc3ncc(NC(=O)CCC(=O)O)cc3Cl)cc2)CC1 [Compound 7] | 27.5 ± 3.0% | 1.49 ± 0.05 | Inactive | 
4 | CC(=O)N1CCN(c2ccc(Oc3ncc(NS(=O)(=O)c4ccc(Cl)cc4Cl)cc3Cl)cc2)CC1 [Compound 6, N-{6-[4-(4-Acetyl-piperazin-1-yl)-phenoxy]-5-chloro-pyridin-3-yl}-2,4-dichloro benzenesulfonamide] | 61.4 ± 3.15% | 2.10 ± 0.05 | 46.07 ± 4.55 | cumulative food intake ([3]; 200 mpk intraperitoneally, FIG. 4, 200 mg/kg): effective in reducing cumulative food intake; also recorded: significantly inhibited food intake; cumulative body weight gain ([3]; 200 mpk intraperitoneally, FIG. 5, 200 mg/kg): effective in reducing cumulative body weight gain; also recorded: inhibited body weight gain on all days
5 | COC(=O)C(Cc1ccc(OCCN(C)C(=O)OC(C)(C)C)cc1)(OC)C(=O)OC [Compound 1, 2-{4-[2-(tert-Butoxycarbonyl-methyl-amino)-ethoxy]-benzyl}-2-methoxy-malonic acid dimethyl ether] | 72.5 ± 2.6% | 2.2 ± 0.18 | 42.93 ± 4.95 | 
6 | CN(CCOc1ccc(CC2SC(=O)NC2=O)cc1)c1ccccn1 (stereo not drawn) [Rosiglitazone] |  |  |  | decrease in plasma triglyceride levels (db/db mice): 40%; reduction in cholesterol levels (db/db mice): 27%
7 | CC(C)CC(N(C)C)C1(c2ccc(Cl)cc2)CCC1 (stereo not drawn) [Sibutramine, reference compound] |  |  |  | cumulative food intake ([3]; standard 3 mpk intraperitoneally, FIG. 4): significantly inhibited food intake; cumulative body weight gain ([3]; standard 3 mpk intraperitoneally, FIG. 5): inhibited body weight gain on all days
8 | COC(Cc1ccc(OCCN(C)C(=O)OC(C)(C)C)cc1)C(=O)O (stereo not drawn) [Compound 2, 3-{4-[2-(tert-Butoxycarbonyl-methyl-amino)-ethoxy]-phenyl}-2-methoxy-propionic acid] | 105 ± 3.6% | 2.62 ± 0.05 | 45.14 ± 4.92 | 
9 | CC(C)(COC(=O)COc1ccc(C(=O)CN2Cc3cc(C(N)=S)ccc3C2=O)cc1)NS(=O)(=O)c1cccnc1 [Compound 3, {4-[2-(1-Oxo-5-thiocarbamoyl-1,3-dihydro-isoindol-2-yl)-acetyl]-phenoxy}-aceticacid-2-methyl-2-(pyridine-3-sulfonylamino)-propyl ester] | 31.6 ± 6.2% | 1.48 ± 0.09 |  | Normalization with control (plasma glucose reduction) ([1]; 50 mpk od): Inactive
